Entries after “also recorded” stand apart in the source; their conditions may differ.
Legend:
[1] = tested on: MCF-7 cells (breast cancer cells); test: 3H-thymidine incorporation assay, MCF-7; type: cell-based; details: compared to 1,25(OH)2D3
Source text: (§1) It is well known that secretory epithelial cells are the main sites for the development of cancers of the breast, prostate and various other organs.
It is well-established that the biological properties of 1,25(OH)2D3 and its analogs are mediated by their interaction with VDR.
(§2) In a study, investigators compared the growth-inhibitory effects of 25-OH-D3-3-BE and 1,25(OH)2D3 in several VDR-positive epithelial cells, e.g. keratinocytes (primary skin cells), MCF-7 cells (breast cancer cells), hormone-sensitive LNCaP and hormone-refractory PC3 cells (prostate cancer cells), and PZ-HPV-7 (papillovirus immortalized normal prostate cells) by using ^3H-thymidine incorporation assays (FIGS. 14-19).

[2] = tested on: LNCaP cells (prostate cancer cells); test: 3H-thymidine incorporation assay, LNCaP; type: cell-based, human; details: for antiproliferative effect (3H-thymidine incorporation): compared to 1,25(OH)2D3; for effect on proliferation (3H-thymidine incorporation): 10^−6M, 16 hours; for dose-dependency of antiproliferative effect: 10^−8-10^−6M
Procedure: (§3) The inventors further studied the effect of 1,25(OH)2D3-3-BE on LNCAP cells (most closely resembling human hormone-sensitive prostate cancer) and PZ-HPV-7 cells (immortalized normal prostate cells). The cells were treated with ethanol or 10^−6M of either 1,25(OH)2D3 or 1,25(OH)2D3-3-BE for 16 hours and the effect on proliferation was determined by ^3H-thymidine incorporation assays as described earlier. The viable cell count was determined by Methylene blue assay. The Methylene blue assay is a simple colorimetric method that is widely used to determine the viable cell count.
The inventors studied dose-dependency of antiproliferation and cytotoxicity by 1,25(OH)2D3 or 1,25(OH)2D3-3-BE in LNCaP cells. The cells were treated with 10^−8-10^−6M of either 1,25(OH)2D3 or 1,25(OH)2D3-3-BE or ethanol (used as a control). The effect on proliferation and viable cell count were determined by using ^3H-thymidine incorporation and Methylene blue assay respectively. […]
as §2

[3] = tested on: PC3 cells (prostate cancer cells); test: 3H-thymidine incorporation assay, PC3; type: cell-based, human; details: for antiproliferative effect (3H-thymidine incorporation): PC3 cells, compared to 1,25(OH)2D3
Source text: as §1, §2
Since 25-OH-D3-3-BE contains an ester bond, its hydrolysis by esterases in growing cells would produce equimolar amounts of bromoacetic acid (BAA) and 25-OH-D3 (see, FIG. 21).
Furthermore, fetal calf serum (FCS) contains many proteins, including vitamin D-binding protein, which potentially could absorb 25-OH-D3-3-BE before it reacts with VDR. Typically, the assays described herein were carried out in a media containing 10% FCS (after serum-depriving the cells for 15 hours).

[4] = tested on: keratinocytes (primary cells); test: 3H-thymidine incorporation assay, keratinocytes; type: cell-based, human; details: compared to 1,25(OH)2D3
Source text: as §1, §2

[5] = tested on: PZ-HPV-7 (papillovirus immortalized normal prostate cells); test: 3H-thymidine incorporation assay, PZ-HPV-7; type: cell-based; details: PZ-HPV-7 cells; for effect on proliferation (3H-thymidine incorporation): 10^−6M, 16 hours; for antiproliferative effect (3H-thymidine incorporation): compared to 1,25(OH)2D3
Procedure: as §1, §3, §2

[6] = tested on: primary cultures of normal human keratinocytes; test: microscopic examination of the cells, keratinocytes; type: cell-based; details: treated for sixteen (16) hours
[7] = tested on: breast cancer cells (MCF-7); test: microscopic examination of the cells, MCF-7; type: cell-based; details: MCF-7, treated for sixteen (16) hours
[8] = tested on: hormone-sensitive LNCaP cells; test: microscopic examination of the cells, LNCaP; type: cell-based, human; details: treated for sixteen (16) hours
[9] = tested on: hormone-refractory PC3 cells; test: microscopic examination of the cells, PC3; type: cell-based, human; details: PC3, treated for sixteen (16) hours
[10] = tested on: immortalized normal prostate cells (PZ-HPV-7); test: microscopic examination of the cells, PZ-HPV-7; type: cell-based; details: PZ-HPV-7, treated for sixteen (16) hours
PC-3 cells = test: DNA-fragmentation analysis; type: cell-based, human; details: 250 nM, 10 hours
Procedure: (a) DNA-fragmentation analysis: PC-3 cells (2×10^6) were treated with 250 nM of 1,25(OH)2D3, 25-OH-D3 or 25-OH-D3-3-BE for 10 hours. The cells were harvested and lysed in 0.5 ml lysis buffer (20 mM Tris-HCl, 10 mM EDTA, 0.5% Triton X-100, pH 8.0), and DNA was extracted using phenol-chloroform procedure. The DNA was resuspended in 0.1 ml of 20 mM Tris-HCl, pH 8 and treated with Rnase, followed by electrophoresis on 1.2% agarose gel in TAE. The DNA was visualized under UV light after ethidinium bromide staining.

LNCaP cells = test: Methylene blue assay, viable cell count, LNCaP; details: 10^−6M, 16 hours
Procedure: as §3
The inventors studied dose-dependency of antiproliferation and cytotoxicity by 1,25(OH)2D3 or 1,25(OH)2D3-3-BE in LNCaP cells. The cells were treated with 10^−8-10^−6M of either 1,25(OH)2D3 or 1,25(OH)2D3-3-BE or ethanol (used as a control). The effect on proliferation and viable cell count were determined by using ^3H-thymidine incorporation and Methylene blue assay respectively.

PZ-HPV-7 cells = test: Methylene blue assay, viable cell count, PZ-HPV-7; type: cell-based; details: 10^−6M, 16 hours
vitamin D receptor, VDR = vitamin D receptor, VDR (Homo sapiens, UniProt P11473); details: cited from earlier work
Sequence of vitamin D receptor, VDR (P11473 whole entry): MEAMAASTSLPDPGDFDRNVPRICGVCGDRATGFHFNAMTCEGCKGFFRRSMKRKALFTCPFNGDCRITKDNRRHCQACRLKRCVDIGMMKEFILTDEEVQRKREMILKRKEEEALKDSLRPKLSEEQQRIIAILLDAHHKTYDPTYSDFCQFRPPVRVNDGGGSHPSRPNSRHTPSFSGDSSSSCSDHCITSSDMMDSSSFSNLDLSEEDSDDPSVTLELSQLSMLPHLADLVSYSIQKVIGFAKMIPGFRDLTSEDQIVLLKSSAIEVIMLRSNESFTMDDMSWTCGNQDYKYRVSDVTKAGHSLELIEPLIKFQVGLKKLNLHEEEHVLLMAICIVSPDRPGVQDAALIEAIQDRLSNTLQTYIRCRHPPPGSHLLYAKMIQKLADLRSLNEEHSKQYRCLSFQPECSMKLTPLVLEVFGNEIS

VDR-regulated genes = details: higher level sustained for a longer duration at a lower concentration of the analog; cited from earlier work
[11] = tested on: intestinal cancer Caco-2 cells; details: compared with 1,25(OH)2D3; cited from earlier work
[12] = in vivo toxicity study in CD-1 mice; details: CD-1 mice; for Body Weight On Day 0: beginning of the experiment
Source text: Investigators completed an in vivo study to determine the toxicity of 25-OH-D3-3-BE at various doses in CD-1 mice. The animals (average weight ˜30 gms) were maintained with normal chow and water ad libitum. […] At the end of the experiment the animals were lightly anesthetized and blood collected after decapitation for serum calcium-analysis. […] Frequency of administration, body weights at the beginning and at the end of the experiment and serum calcium values are given in the accompanying Table 1.

[13] = tested on: prostate tumor induced with PC-3 cells; test: in vivo effect in mice bearing prostate tumor induced with PC-3 cells; set-up: species or system male SCID mice; details: SCID mice with PC-3 tumor; 25-OH-D3 10 μg or 25-OH-D3-3-BE 13.2 μg (molar equivalent) i.p. in alternate days for two weeks
Procedure: Sesame oil solutions (200 μl) of either 25-OH-D3 (10 μg) or 25-OH-D3-3-BE (13.2 μg, molar equivalent of 25-OH-D3) or vehicle were administered i.p. in alternate days for two weeks. […] At the end, mice were anesthetized, tumors were removed, and blood was collected. Tumors were embedded in paraffin and sections were made.

VDR = VDR (Homo sapiens, UniProt P11473); details: compared with 1,25(OH)2D3; cited from earlier work
Sequence of VDR (P11473 whole entry, species assumed): as the sequence (P11473 whole entry) above

| Structure (SMILES) | antiproliferative effect (3H-thymidine incorporation) [1] | antiproliferative effect (3H-thymidine incorporation) [2] | antiproliferative effect (3H-thymidine incorporation) [4] | effect on proliferation (3H-thymidine incorporation) [2] | dose-dependency of antiproliferative effect [2] | antiproliferative effect (3H-thymidine incorporation) [3] | effect on proliferation (3H-thymidine incorporation) [5] | antiproliferative effect (3H-thymidine incorporation) [5] | microscopic appearance of the cells [6] | microscopic appearance of the cells [7] | microscopic appearance of the cells [8] | microscopic appearance of the cells [9] | microscopic appearance of the cells [10] | DNA fragmentation (apoptosis) (PC-3 cells) | further results |
| --- | --- | --- | --- | --- | --- | --- | --- | --- | --- | --- | --- | --- | --- | --- | --- |
| O=C(O)CBr [bromoacetic acid, reference compound] | no effect | no effect | – | – | – | – | – | – | – | – | – | – | – | – | growth-inhibitory effect (3H-thymidine incorporation) ([3]; PC-3 cells, 10^−6M): not antiproliferative |
| C=C1/C(=C\C=C2/CCC[C@]3(C)[C@@H]([C@H](C)CCCC(C)(C)O)CC[C@@H]23)C[C@@H](O)C[C@@H]1O [1,25(OH)2D3, 1-α,25-dihydroxyvitamin D3, reference compound] | dose-dependant antiproliferation | dose-dependant antiproliferation | dose-dependant antiproliferation | only inhibition of proliferation | most pronounced at 10^−6M | dose-dependant antiproliferation | only inhibition of proliferation | dose-dependant antiproliferation | appeared normal | appeared normal | appeared normal | appeared normal | appeared normal | no such DNA cleavage was observed | – |
| O=C(CBr)OCc1ccccc1 [benzylbomacetate, benzylbormoacetate, reference compound] | no effect | no effect | – | – | – | – | – | – | – | – | – | – | – | – | – |
| C=C1/C(=C\C=C2/CCC[C@@]3(C)C2CC[C@@H]3C(C)CCCC(C)(C)O)C[C@@H](OC(=O)CBr)CC1O (stereo partly drawn) [1,25(OH)2D3-3-BE, 1α,25-dihydroxy-vitamin D3-3β-(2)-bromoacetate] | stronger antiproliferative effect; also recorded: dose-dependant antiproliferation | stronger antiproliferative effect; also recorded: dose-dependant antiproliferation | stronger antiproliferative effect; also recorded: dose-dependant antiproliferation | almost completely inhibited | most pronounced at 10^−6M | stronger antiproliferative effect; also recorded: dose-dependant antiproliferation | almost completely inhibited | stronger antiproliferative effect; also recorded: dose-dependant antiproliferation | appeared normal | appeared normal | appeared to have undergone apoptosis | appeared to have undergone apoptosis | appeared normal | – | decrease of proliferation compared with 1,25(OH)2D3 ([2]; dose levels of 10^−6 and 10^−7M): much stronger in decreasing the proliferation than 1,25(OH)2D3; viable cell count diminished by (LNCaP cells): approximately 60%; viable cell count diminished by (PZ-HPV-7 cells): approximately 15%; speed of cross-linking to VDR (vitamin D receptor, VDR): extremely rapid; transcription of VDR-regulated genes (VDR-regulated genes): increased transcription; calcemic index [11]: lower calcemic index than 1,25(OH)2D3 |
| C=C1CC[C@H](O)C/C1=C/C=C1\CCC[C@]2(C)[C@@H]([C@H](C)CCCC(C)(C)O)CC[C@@H]12 [25-OH-D3, 25-hydroxyvitamin D3, reference compound] | – | – | – | – | – | – | – | – | – | – | – | – | – | no such DNA cleavage was observed | Body Weight on Day 12 ([12]; 3.3 μg/kg intraperitoneally): 33.5 ± 1 grams; Body Weight On Day 0 ([12]; 3.3 μg/kg intraperitoneally): 31.5 ± 1.56 grams; Body Weight on Day 12 ([12]; 33 μg/kg intraperitoneally): 30.66 ± 2 grams; Body Weight On Day 0 ([12]; 33 μg/kg intraperitoneally): 28.9 ± 2 grams; condition of the mice at the end of treatment [13]: very sick, and most of them died; VDR-binding ability (VDR): significantly low VDR-binding ability |

— patent US20050059641A1, “Compositions and methods for treating and preventing cancer using analogs of vitamin D” (Aphios Corporation, priority 2003, published 2005)
